{"source": "patent US11873295B2", "about": "“Allosteric chromenone inhibitors of phosphoinositide 3-kinase (PI3K) for the treatment of disease” (Petra Pharma Corporation, priority 2021, dated 2024)", "key": {"[1]": {"target": "T1, human full length PIK3KA H1047R mutant (p110α/p85α complex) (Homo sapiens, UniProt P42336, H1047R)", "T1 construct": "Recombinant, catalytically active human full length PIK3KA Wild-type and H1047R mutant were purchased as 1:1 complex; 6xHis (N); purchased EMD Millipore Sigma 14-792M", "T1 sequence (P42336 whole entry H1047R)": "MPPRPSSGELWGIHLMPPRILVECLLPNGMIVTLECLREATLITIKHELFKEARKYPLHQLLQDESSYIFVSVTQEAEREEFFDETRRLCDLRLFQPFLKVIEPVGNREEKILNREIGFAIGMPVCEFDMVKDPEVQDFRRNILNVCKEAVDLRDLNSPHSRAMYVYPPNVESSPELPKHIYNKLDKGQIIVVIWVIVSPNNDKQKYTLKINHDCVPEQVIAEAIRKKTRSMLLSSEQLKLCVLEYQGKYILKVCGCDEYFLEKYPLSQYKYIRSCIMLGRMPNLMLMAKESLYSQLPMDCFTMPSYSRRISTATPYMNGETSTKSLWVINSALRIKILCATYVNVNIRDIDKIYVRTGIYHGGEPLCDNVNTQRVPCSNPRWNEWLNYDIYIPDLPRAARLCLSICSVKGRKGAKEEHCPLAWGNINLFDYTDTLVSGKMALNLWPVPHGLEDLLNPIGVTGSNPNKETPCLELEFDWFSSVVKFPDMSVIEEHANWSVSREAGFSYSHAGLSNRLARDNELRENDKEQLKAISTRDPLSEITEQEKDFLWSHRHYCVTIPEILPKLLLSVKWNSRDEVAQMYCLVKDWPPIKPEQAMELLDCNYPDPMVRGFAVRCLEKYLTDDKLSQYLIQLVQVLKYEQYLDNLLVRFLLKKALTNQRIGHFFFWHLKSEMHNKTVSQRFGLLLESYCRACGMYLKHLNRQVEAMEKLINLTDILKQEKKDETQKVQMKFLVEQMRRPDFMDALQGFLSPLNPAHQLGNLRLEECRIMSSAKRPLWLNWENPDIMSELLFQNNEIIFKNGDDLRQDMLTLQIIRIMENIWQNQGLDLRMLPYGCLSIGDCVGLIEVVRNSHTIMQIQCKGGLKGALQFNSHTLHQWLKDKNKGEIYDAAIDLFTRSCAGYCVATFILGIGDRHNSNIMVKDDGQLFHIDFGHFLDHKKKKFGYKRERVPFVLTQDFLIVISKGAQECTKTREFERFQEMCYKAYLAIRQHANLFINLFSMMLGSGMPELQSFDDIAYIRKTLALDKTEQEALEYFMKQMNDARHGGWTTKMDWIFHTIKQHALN", "T1 sequence (P27986 whole entry partner)": "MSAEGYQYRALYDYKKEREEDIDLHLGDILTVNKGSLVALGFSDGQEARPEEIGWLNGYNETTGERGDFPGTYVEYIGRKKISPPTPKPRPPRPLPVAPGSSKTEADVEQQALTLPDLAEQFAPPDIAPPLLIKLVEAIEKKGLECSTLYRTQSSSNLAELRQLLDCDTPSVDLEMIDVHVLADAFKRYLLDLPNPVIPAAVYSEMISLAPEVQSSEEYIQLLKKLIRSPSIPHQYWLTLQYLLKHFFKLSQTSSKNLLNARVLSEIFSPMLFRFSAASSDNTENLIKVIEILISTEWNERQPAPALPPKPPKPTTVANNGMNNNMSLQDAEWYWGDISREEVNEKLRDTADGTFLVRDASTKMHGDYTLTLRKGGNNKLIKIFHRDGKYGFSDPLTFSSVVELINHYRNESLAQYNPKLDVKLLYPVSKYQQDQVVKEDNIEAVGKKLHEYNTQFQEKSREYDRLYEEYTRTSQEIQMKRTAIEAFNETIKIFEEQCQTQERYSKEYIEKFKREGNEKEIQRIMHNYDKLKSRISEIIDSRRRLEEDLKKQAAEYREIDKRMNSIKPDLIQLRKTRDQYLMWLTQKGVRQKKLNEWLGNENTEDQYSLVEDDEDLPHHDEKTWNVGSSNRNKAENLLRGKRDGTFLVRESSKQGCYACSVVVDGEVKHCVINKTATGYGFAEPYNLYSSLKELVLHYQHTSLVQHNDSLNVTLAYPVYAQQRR", "experiment": "PI3K-alpha kinase (PIK3CA) biochemical activity, H1047R mutant, ADP-Glo", "conditions": "PI3K-α (PIK3CA) biochemical, H1047R mutant, Soy PI lipid substrate", "excerpt": "(§1) PI3K-Alpha Kinase (PIK3CA) Activity, Wild-Type and H1047R Mutant and Determining IC50 Values for Inhibitors\n(§2) Recombinant, catalytically active human full length PIK3KA Wild-type and H1047R mutant were purchased as 1:1 complex of N-terminal 6× his tagged p110α (catalytic) and untagged p85α (regulatory subunit) from EMD Millipore Sigma (cat. no. 14-602M and 14-792M, respectively). PIP2diC8 (Avanti Polar Lipids Inc., cat. no. 850185) or Soy PI (Avanti Polar Lipids Inc., cat. No. 840044P) was used as lipid substrate. PIP2diC8 or PI lyophilized powder was dissolved in milliQ water to a concentration of 1 mM just before use. 10 mM stock compounds in DMSO were serially diluted 1:3 to generate a 10-point curve and plated using an acoustic liquid handler system (Echo 550 series instrument, Labcyte). A 10× intermediate compound plate (200 uM starting compound concentration and 10% DMSO) was prepared before starting the reaction. A typical reaction mixture (50 uL) comprised 40 mM HEPES buffer, pH 7.4, 25 mM MgCl2, 0.01% v/v triton-X-100, 1% v/v DMSO, 20 mM NaCl, 1-5 nM WT or H1047R PI3K protein, 20 uM ATP, and 50 uM PIP2diC8 or Soy PI. 1% DMSO buffer alone without test compound was employed as MAX control (full activity in the absence of any inhibitor), and no enzyme control was used to determine the level of background Adenosine 5′-diphosphate (ADP) (MIN control). First, Wild-type (WT) and H1047R mutant protein in kinase buffer with all components except ATP were incubated with or without compound at 27° C. for 1 h. After the pre-incubation, the reaction was initiated by the addition of 20 uL of 50 uM ATP (20 uM final concentration). The reaction was allowed to proceed until about 10% conversion of ATP (2 uM ADP) at 27° C. After that time, 5 uL of reaction was mixed with 5 uL of ADP-Kinase Glo Reagent (ADP-Glo Kinase assay kit, Promega cat. no. V9102) supplemented with MgCl2 10 mM to stop the reaction and deplete the remaining ATP for 40 min at room temperature. Then, 10 uL of Kinase Detection Reagent (ADP-Glo Kinase assay kit, Promega cat. no. V9102) was added to simultaneously convert ADP to ATP and allow the newly synthesized ATP to be measured using a luciferase/luciferin reaction. After 30 min at room temperature the light generated was measured using a luminometer (EnVision plate reader, Perkin Elmer). Process data through Genedata-Screener tool. Relative IC50 values are determined using luminescence units by calculating percent inhibition with respect to on-plate “MIN” and “MAX” controls. Data was analyzed using a 4-parameter nonlinear logistic equation (four-parameter logistic concentration-response curve): Y=bot+[(top−bot)/1+(x/IC50)slope] where Y=% inhibition, X=concentration yielding y % inhibition, Bottom=minimum value of y attained by curve, Top=maximum value of y attained by curve and Slope=steepness of curve at IC50. % Inh=[(median Max−x/median Max−median Min)]·100 IC50: concentration of compound that reduces a given response (ligand binding, enzyme response) by 50%. IC50 relative: concentration giving half the compound's maximum response.\n(§3) For IC50 values shown in Table A, “A” means IC50<0.5 μM; “B” means IC50 ranging between 0.5 μM and 1.0 μM; “C” means IC50 ranging between 1 μM and 5 μM; “D” means IC50 ranging between 5 μM and 10 μM; “E” means IC50>10 μM."}, "[2]": {"target": "T2, human full length PIK3KA Wild-type (p110α/p85α complex) (Homo sapiens, UniProt P42336)", "T2 construct": "Recombinant, catalytically active human full length PIK3KA Wild-type and H1047R mutant were purchased as 1:1 complex; 6xHis (N); purchased EMD Millipore Sigma 14-602M", "experiment": "PI3K-alpha kinase (PIK3CA) biochemical activity, wild-type, ADP-Glo", "conditions": "PI3K-α (PIK3CA) biochemical, Soy PI lipid substrate", "excerpt": "as §1, §2, §3"}}, "note": "pIC50: −log10 of the molar value.", "data": [{"molecule": "Cc1cc([C@@H](C)Nc2cncnc2C(=O)O)c2oc(-c3ccccc3)c(C)c(=O)c2c1", "note": "[Example 74, 5-[[(1R)-1-(3,6-Dimethyl-4-oxo-2-phenyl-chromen-8-yl)ethyl]amino]pyrimidine-4-carboxylic acid]", "values": [{"measurement": "pIC50", "setting": "[1]", "result": "> 6.30"}, {"measurement": "pIC50", "setting": "[2]", "result": "< 5.00"}]}, {"molecule": "Cc1cc([C@@H](C)Nc2ccc(Br)cc2C(=O)O)c2oc(-c3ccccc3)c(C)c(=O)c2c1", "note": "[Example 77, 5-Bromo-2-[[(1R)-1-(3,6-dimethyl-4-oxo-2-phenyl-chromen-8-yl)ethyl]amino]benzoic acid]", "values": [{"measurement": "pIC50", "setting": "[1]", "result": "> 6.30"}, {"measurement": "pIC50", "setting": "[2]", "result": "5.30 to 6.00"}]}, {"molecule": "Cc1cc([C@@H](C)Nc2ccccc2C(=O)O)c2oc(-c3ccccc3)c(I)c(=O)c2c1", "note": "[Example 79, 2-[[(1R)-1-(3-Iodo-6-methyl-4-oxo-2-phenyl-chromen-8-yl)ethyl]amino]benzoic acid 2,2,2-trifluoroacetic acid]", "values": [{"measurement": "pIC50", "setting": "[1]", "result": "> 6.30"}, {"measurement": "pIC50", "setting": "[2]", "result": "6.00 to 6.30"}]}, {"molecule": "C[C@@H](Nc1ccccc1C(=O)O)c1cc(F)cc2c(=O)cc(-c3cccc(C(F)F)c3)oc12", "note": "[Example 80, 2-[[(1R)-1-[2-[3-(Difluoromethyl)phenyl]-6-fluoro-4-oxo-chromen-8-yl]ethyl]amino]benzoic acid 2,2,2-trifluoroacetic acid]", "values": [{"measurement": "pIC50", "setting": "[1]", "result": "> 6.30"}, {"measurement": "pIC50", "setting": "[2]", "result": "5.00 to 5.30"}]}, {"molecule": "C[C@@H](Nc1ccc(Cl)nc1C(=O)O)c1cc(C(F)(F)F)cc2c(=O)cc(-c3ccccc3)oc12", "note": "[Example 82, 6-Chloro-3-[[(1R)-1-[4-oxo-2-phenyl-6-(trifluoromethyl)-chromen-8-yl]ethyl]amino]pyridine-2-carboxylic acid]", "values": [{"measurement": "pIC50", "setting": "[1]", "result": "> 6.30"}, {"measurement": "pIC50", "setting": "[2]", "result": "5.30 to 6.00"}]}, {"molecule": "Cc1c(-c2cccc(C(F)F)c2)oc2c([C@@H](C)Nc3ccccc3C(=O)O)cc(F)cc2c1=O", "note": "[Example 83, 2-[[(1R)-1-[2-[3-(Difluoromethyl)phenyl]-6-fluoro-3-methyl-4-oxo-chromen-8-yl]ethyl]amino]benzoic acid 2,2,2-trifluoroacetic acid]", "values": [{"measurement": "pIC50", "setting": "[1]", "result": "> 6.30"}, {"measurement": "pIC50", "setting": "[2]", "result": "5.00 to 5.30"}]}, {"molecule": "COc1ccc(NC(C)c2cc(C)cc3c(=O)c(C)c(-c4ccccc4)oc23)c(C(=O)O)n1", "note": "(stereo not shown) [Example 89, 3-[1-(3,6-Dimethyl-4-oxo-2-phenyl-chromen-8-yl)ethylamino]-6-methoxy-pyridine-2-carboxylic acid 2,2,2-trifluoroacetic acid]", "values": [{"measurement": "pIC50", "setting": "[1]", "result": "> 6.30"}, {"measurement": "pIC50", "setting": "[2]", "result": "5.30 to 6.00"}]}, {"molecule": "C[C@@H](Nc1ccccc1C(=O)O)c1cc(C(F)(F)F)cc2c(=O)cc(-c3ccc(F)cc3F)oc12", "note": "[Example 90, 2-[[(1R)-1-[2-(2,4-Difluorophenyl)-4-oxo-6-(trifluoromethyl)-chromen-8-yl]ethyl]amino]benzoic acid]", "values": [{"measurement": "pIC50", "setting": "[1]", "result": "> 6.30"}, {"measurement": "pIC50", "setting": "[2]", "result": "5.00 to 5.30"}]}, {"molecule": "Cc1cc(C(C)Nc2cccc(F)c2C(=O)O)c2oc(-c3ccccc3F)cc(=O)c2c1", "note": "(stereo not shown) [Example 97, 2-Fluoro-6-[1-[2-(2-fluorophenyl)-6-methyl-4-oxo-chromen-8-yl]ethylamino]benzoic acid 2,2,2-trifluoroacetic acid]", "values": [{"measurement": "pIC50", "setting": "[1]", "result": "> 6.30"}, {"measurement": "pIC50", "setting": "[2]", "result": "5.30 to 6.00"}]}, {"molecule": "Cc1c(-c2cccc(C#N)c2)oc2c([C@@H](C)Nc3ccc(Cl)nc3C(=O)O)cc(C(F)(F)F)cc2c1=O", "note": "[Example 100, 6-Chloro-3-[[(1R)-1-[2-(3-cyanophenyl)-3-methyl-4-oxo-6-(trifluoromethyl)-chromen-8-yl]ethyl]amino]pyridine-2-carboxylic acid]", "values": [{"measurement": "pIC50", "setting": "[1]", "result": "> 6.30"}, {"measurement": "pIC50", "setting": "[2]", "result": "6.00 to 6.30"}]}, {"molecule": "Cc1cc([C@@H](C)Nc2ccc(Cl)nc2C(=O)O)c2oc(-c3ccccc3)c(C(F)(F)F)c(=O)c2c1", "note": "[Example 139, 6-Chloro-3-[[(1R)-1-[6-methyl-4-oxo-2-phenyl-3-(trifluoromethyl)-chromen-8-yl]ethyl]amino]pyridine-2-carboxylic acid 2,2,2-trifluoroacetic acid]", "values": [{"measurement": "pIC50", "setting": "[1]", "result": "> 6.30"}, {"measurement": "pIC50", "setting": "[2]", "result": "> 6.30"}]}]}
